The record followed here is the Deep4Chem optical property database.

This data set in a line: solvent given as SMILES.

For `CCCCCCCCCCCCOc1cc(/C=C/c2ccc3c(c2)C(CC)(CC)c2cc(N4c5ccccc5Sc5ccccc54)ccc2-3)c(OCCCCCCCCCCCC)cc1/C=C/c1ccc2c(c1)C(CC)(CC)c1cc(N3c4ccccc4Sc4ccccc43)ccc1-2`, the emission maximum is, setting by setting: (in C1CCOC1) 474 nm; (in CC#N) 473 nm; (in CCCCCC) 477 nm; (in Cc1ccccc1) 468 nm; (in ClCCl) 477 nm.
`COc1ccc(C2=C3C(/C=C/c4cc(OC)c(OC)c(OC)c4)=C(C=O)C(C)=[N+]3[B-](F)(F)n3c(C)c(C=O)c(C=Cc4cc(OC)c(OC)c(OC)c4)c32)cc1` returned an emission maximum (in ClCCl) of 673 nm.
For `CCCCCCCCCCCCOc1ccc(C2=c3sc4ccccc4c3=[N+]3C2=Nc2c(-c4ccc(OCCCCCCCCCCCC)cc4)c4sc5ccccc5c4n2[B-]3(F)F)cc1`, the emission maximum reads like this: (in C1CCOC1) 813 nm; (in Cc1ccccc1) 804 nm; (in ClC(Cl)Cl) 808 nm.
With `CC1(C)c2cc(-c3ccc4ccc5cccc6ccc3c4c56)ccc2-c2ccc(-c3ccc4ccc5cccc6ccc3c4c56)cc21`, the emission maximum (in ClCCl) came to 421 nm.
Turning to `N#Cc1ccc(-n2c(-c3ccc(-c4ccc(-n5c6ccccc6c6ccccc65)cc4)s3)nc3c4ccccc4c4ccccc4c32)c2ccccc12`, the emission maximum (in ClCCl) came to 400 nm.
With `c1cc2c3c(c1)-c1ccc4c5c(ccc(c15)B3c1ccc3c5c(ccc-2c15)CC3)CC4`, the emission maximum (in Cc1ccccc1) is listed as 516 nm.
For `N#Cc1cccc2[nH]ccc12`, the emission maximum reads like this: (in C1CCOC1) 371 nm; (in C1COCCO1) 369 nm; (in CC#N) 380 nm; (in CC(C)O) 385 nm; (in CCO) 387 nm; (in CO) 390 nm. Besides, the emission maximum is, setting by setting: (in CS(C)=O) 392 nm; (in O) 405 nm; (in OCC(F)(F)F) 394 nm.
For the compound `O=C1CC(c2ccc(Cl)cc2)c2c(c3ccccc3c3nc4ccccc4nc23)O1` (stereo not given), the emission maximum (in ClC(Cl)Cl) is 434 nm.
For `O=c1oc2ccccc2c2c1c(=O)oc1cc(O)ccc12`, the emission maximum (in ClCCl) was found to be 455 nm.
The compound `CC(C)c1ccc(-c2nc(-c3ccccc3)c3ccccn23)cc1` yielded an emission maximum (in CC#N) of 478 nm.
For the setting “in CO”, `Oc1cc2ccc3cc(O)cc4ccc(c1)c2c34` displayed an emission maximum of 405 nm.
In the case of `Brc1ccc(-c2pc3ccccc3s2)cc1` (stereo not given), the emission maximum (in CC#N) was 439 nm.
In the case of `CC(C)(C)Nc1cc2sc3cc(NC(C)(C)C)c(F)cc3c(=O)c2cc1F`, the emission maximum (in CCO) was found to be 432 nm.
For the setting “in CCCCCC”, `CC(C)[Si](C#Cc1c2nc3c(nc2c(C#C[Si](C(C)C)(C(C)C)C(C)C)c2nc4ccccc4nc12)C1c2ccccc2C3c2ccccc21)(C(C)C)C(C)C` came in with an emission maximum of 563 nm.
For `CCC1=C(C)C2=C(C)c3c(C)c(-c4csc(N5CCOCC5)n4)c(C)n3[B-](F)(F)[N+]2=C1C`, the emission maximum reads like this: (in C1CCOC1) 618 nm; (in C1COCCO1) 606 nm; (in CC#N) 543 nm; (in CC(C)O) 538 nm; (in CCO) 539 nm; (in CCOC(C)=O) 549 nm. Also, the emission maximum by setting is: (in CN(C)C=O) 539 nm; (in CO) 540 nm; (in CS(C)=O) 539 nm; (in Cc1ccccc1) 597 nm; (in ClC(Cl)Cl) 603 nm; (in ClCCl) 537 nm.
For `F[B-]1(F)N(c2ccccc2)C=Cc2cccc[n+]21`, the emission maximum runs as follows: (in C1CCCCC1) 543 nm; (in C1CCOC1) 541 nm; (in CC#N) 555 nm; (in CCO) 553 nm; (in O) 539 nm.
As to `COc1ccc(C2=C3C=CC(C)=[N+]3[B-](F)(F)n3c(C)ccc32)cc1`, the emission maximum by setting is: (in C1CCCCC1) 521 nm; (in C1CCOC1) 521 nm; (in CC#N) 517 nm; (in CCOC(C)=O) 518 nm; (in CO) 518 nm; (in Cc1ccccc1) 524 nm. In addition, the emission maximum (in ClC(Cl)Cl) was 523 nm.
As to `COC(=O)CN1C(=O)c2cc3ccc(N(C)C)cc3cc2C1=O`, the emission maximum (in C1CCOC1) was 510 nm; the emission maximum (in CC#N) worked out at 549 nm; the emission maximum (in CC(C)=O) came to 532 nm; the emission maximum (in CCO) is recorded as 584 nm; the emission maximum (in Cc1ccccc1) was found to be 491 nm; the emission maximum (in ClC(Cl)Cl) turned out to be 509 nm.
Turning to `Cc1cc(C)n2c1C=C1C(=O)N(C)C(c3ccc([N+](=O)[O-])cc3)=[N+]1[B-]2(F)F`, the emission maximum (in CCCCCC) amounted to 587 nm.
Compound `CCCC1(CCC)c2cc(-c3ccccc3)ccc2-c2ccc(-c3ccc4c(c3)C(CCC)(CCC)c3cc(-c5ccccc5)ccc3-4)cc21` gave an emission maximum (in C1CCCCC1) of 387 nm.
For `CCc1c(C(=O)OC)c(C(=O)OC)c2ccc(-c3ccccc3)nn12`, the emission maximum (in CCCCCC) turned out to be 471 nm.
In the case of `COC(=O)c1c2ccccc2nc2ccccc12`, the emission maximum runs as follows: (in C1CCOC1) 418 nm; (in C1COCCO1) 420 nm; (in CC#N) 422 nm; (in CCCCCO) 432 nm; (in CCCCO) 431 nm; (in CCCO) 430 nm. The emission maximum is given as 432 nm (in CCO); 432 nm (in CO); 420 nm (in COCCOC); 428 nm (in ClC(Cl)Cl); 422 nm (in ClCCl); 418 nm (in OCCO).
The compound `CCCCCCN1C(=O)c2cccc3cc(/N=C\c4ccc(N5CCOCC5)cc4)cc(c23)C1=O` showed an emission maximum (in ClC(Cl)Cl) of 557 nm.
On to `CN(C)c1ncc2nc(C#N)n(Cc3ccccc3)c2n1`, for which the emission maximum was 424 nm (in C1COCCO1), 440 nm (in CC#N), 456 nm (in CO) and 429 nm (in ClCCl).
In the case of `c1cc(-c2ccc3sc4ccccc4c3c2)cc(-c2cc(-c3cccc(-c4ccc5sc6ccccc6c5c4)c3)ncn2)c1`, for the setting “in ClCCl”, the emission maximum worked out at 411 nm.
In the case of `CCN(CC)c1ccc2c(c1)oc(=O)c1c(=O)oc3cc(Br)ccc3c12`, the emission maximum by setting is: (in CS(C)=O) 572 nm; (in ClCCl) 540 nm.
For `CCN(CC)c1ccc2c(c1)oc(=O)c1c(=O)oc3cc(C#Cc4ccc(C#N)cc4)ccc3c12`, the emission maximum is, setting by setting: (in CS(C)=O) 625 nm; (in ClCCl) 572 nm.
Regarding `COc1ccc2c(c1)[n+]([O-])nc(N)[n+]2[O-]`, the emission maximum runs as follows: (in CC#N) 510 nm; (in O) 542 nm.
Consider `COc1cn2cc(-c3ccc(C#N)cc3)[n-][n+]2c1`, for which the emission maximum (in ClCCl) is 505 nm.
Under “in ClC(Cl)Cl”, `COc1ccc2c(c1)c(C#N)c(C#N)c1cc(OC)ccc12` yielded an emission maximum of 440 nm.
`C[N+]1=C(/C=C/C=C2/N(CCCS(=O)(=O)[O-])c3ccccc3C2(C)C)C(C)(C)c2ccccc21`: the emission maximum (in CS(C)=O) is 565 nm.
In the case of `CC1=CC(C)=[N+]2C1=C(c1ccccc1)c1c(C)cc(/C=C/c3ccccc3)n1[B-]2(F)F`, the emission maximum (in CC#N) is listed as 569 nm.
Regarding `Cc1ccc(/C=C/c2ccccc2-[n+]2cc([O-])on2)cc1`, the emission maximum stood at 400 nm (in C1CCCCC1) and 504 nm (in CC#N).
As to `CCC1=C(C)C2=Cc3c4ccccc4c4n3[B-](c3ccncc3)(Oc3ccccc3-4)[N+]2=C1C=Cc1ccc(OC)cc1` (stereo not given), the emission maximum is, setting by setting: (in CC#N) 712 nm; (in CCCCCC) 711 nm; (in Cc1ccccc1) 720 nm; (in ClCCl) 717 nm.
On to `CC1(C)c2ccccc2N(c2ccc(-c3cnc(C#N)nc3)cc2)c2ccccc21`, for which the emission maximum was found to be 524 nm (in Cc1ccccc1) and 526 nm (in N#Cc1ccc2c(c1)c1ccccc1n2-c1cccc(-n2c3ccccc3c3ccccc32)c1).
For the compound `CCN(CC)c1ccc2cc(-c3cn4ccccc4n3)c(=O)oc2c1`, the emission maximum worked out at 474 nm (in C1CCOC1); 475 nm (in CC#N); 482 nm (in CCO); 468 nm (in CCOC(C)=O); 477 nm (in CN(C)C=O); 485 nm (in CO). Also, the emission maximum was determined as 482 nm (in CS(C)=O), 469 nm (in Cc1ccccc1), 471 nm (in ClC(Cl)Cl) and 478 nm (in ClCCl).
Where the note is “in C1CCOC1”, `Cc1ccsc1-c1cc2c3cc(-c4sccc4C)c4nc(C(F)(F)C(F)(F)C(F)(F)F)nc5c(-c6sccc6C)cc(c6cc(-c7sccc7C)c7nc(C(F)(F)C(F)(F)C(F)(F)F)nc1c7c26)c3c45` came in with an emission maximum of 627 nm.
`COc1ccc(-c2nc3ccccc3oc2=O)cc1`: the emission maximum (in c1ccccc1) amounted to 444 nm.
For the setting “in Cc1ccccc1”, `c1ccc(-c2nc(-c3ccccc3)nc(-c3ccc(-n4c5ccc(-n6c7ccccc7c7ccccc76)cc5c5ccc6c(c7ccccc7n6-c6ccccc6)c54)cc3)n2)cc1` registered an emission maximum of 463.87 nm.
Consider `N#Cc1cc(C#N)c(-n2c3ccccc3c3cc(-c4ccc5c(c4)c4ccccc4n5-c4cc(-n5c6ccccc6c6ccccc65)c(C#N)cc4C#N)ccc32)cc1-n1c2ccccc2c2ccccc21`, for which the emission maximum (in O=P(c1ccccc1)(c1ccccc1)c1ccccc1Oc1ccccc1P(=O)(c1ccccc1)c1ccccc1) was 470 nm.
In the case of `Cc1ccc(-c2ccc(/C=C/c3ccc(F)cc3)cn2)nc1`, the emission maximum (in CC#N) stood at 391 nm.
For `Oc1ccc2ccccc2c1`, the emission maximum reads like this: (in C1CCCCC1) 350.75 nm; (in O) 351 nm.
`Cc1c(C(=O)c2ccc(C(F)(F)F)cc2)c2ccc3cccc4c5cccc6ccc1c(c65)c2c34`: the emission maximum (in ClCCl) was found to be 545 nm.
